The results in this text go back to patent US11992545B2, “Aqueous cosmetic compositions containing pelargonic acid esters” (Novamont S.p.A., priority 2015, dated 2024).

One data set can be described thus: Pigments dispersion: wet point and flow point. It is filed as physicochemical.
Details: not given
An excerpt: Black Iron Oxide particles (C177499, commercially available as YPC335200 from Yipin) were dispersed in each of the ester oils of the present invention and in ester oil commonly used as cosmetic ingredients. Each sample of powder particles was wetted by the dropwise addition of one ester oil and then vigorously blended using a spatula until the wet point and the flow point were reached.
The wet point is defined as the minimum volume of dispersant solution to produce a soft coherent mass; the further minimum addition of dispersant solution to produce flow or falling off of the homogeneous mass from the vertical blade of a horizontally held spatula determines the flow point.
The amounts of dispersant solution (i.e. ester oil) needed to reach the wet point (Wp) and the flow point (Fp) were recorded and reported in the table below, expressed in grams per 100 g of pigment.
`CCCCCCCCC(=O)OCC(COC(=O)CCCCCCCC)OC(=O)CCCCCCCC` [Glycerol tripelargonate]: the “less solvent required in the final composition” value is reported as “about 30%”.

Still in this data set, the particulars now being: grams per 100 g of pigment.
For `CCCCCCCCC(=O)OCC(C)(C)COC(=O)CCCCCCCC` [Neopentyl glycol dipelargonate], the “Fp (flow point), amount of ester oil” value is listed as 166.00 g and the “Wp (wet point), amount of ester oil” value came to 61.00 g.
In the same order, the values of `CC(C)CCCCCCOC(=O)CCCCCC(C)C` [Isononyl Isononanoate, reference compound] are 145.00 g and 50.00 g.
In the same order, the values of `CCCCCCCCC(=O)OCC(COC(=O)CCCCCCCC)(COC(=O)CCCCCCCC)COC(=O)CCCCCCCC` [Pentaerythritol tetrapelargonate] are 132.00 g and 62.00 g.
In the same order, the values of `CCCCCCCCC(=O)OCC(COC(=O)CCCCCCCC)OC(=O)CCCCCCCC` [Glycerol tripelargonate] are 100.00 g and 60.00 g.

Staying with this data set, now noted: in words.
Take `CCCCCCCCC(=O)OCC(COC(=O)CCCCCCCC)OC(=O)CCCCCCCC` [Glycerol tripelargonate]: the “dispersion properties compared with commonly used cosmetic ingredients” value is on record as “even better”.

A further data set is described as follows: UV filters dispersion (dispersibility of solid UV filter in ester oils). It is filed as physicochemical. Also noted: key to Filters dispersion t0, 1% / Filters dispersion t0, 10% / Filters dispersion t24, 1% / Filters dispersion t24, 10%: D=homogeneous dispersion; S=sediment deposit. Conditions: 1% TiO2, 0 hours at 25° C. On the procedure:
The dispersibility of a solid UV filter in different ester oils was tested using Titania (TiO2, commercially available as Titanio Biossido Anatasio from A.C.E.F.). Various ratios of filter/ester (1% and 10% TiO2) were prepared under stirring at 70° C. for 30 minutes. The dispersions were then observed after a storage period of 0 hours (t0) and 24 hours (t24) at ambient temperature (25° C.) to check for the formation of any sediment deposit. Results for each ester are shown in the table below (D=homogeneous dispersion; S=sediment deposit).
Turning to `CCCCCCCCC(=O)OCC(C)(C)COC(=O)CCCCCCCC` [Neopentyl glycol dipelargonate], the “Filters dispersion t0, 1%” value is on record as “D”.
As for `CC(C)CCCCCCOC(=O)CCCCCC(C)C` [Isononyl Isononanoate, reference compound], the “Filters dispersion t0, 1%” value was “D”.
For the compound `CCCCCCCCC(=O)OCC(COC(=O)CCCCCCCC)(COC(=O)CCCCCCCC)COC(=O)CCCCCCCC` [Pentaerythritol tetrapelargonate], the “Filters dispersion t0, 1%” value was “D”.
The same measure, in the same setting: the result for `CCCCCCCCC(=O)OCC(COC(=O)CCCCCCCC)OC(=O)CCCCCCCC` [Glycerol tripelargonate] reads “D”.

The same data set, now with this note: 1% TiO2, 24 hours at 25° C.
On to `CCCCCCCCC(=O)OCC(C)(C)COC(=O)CCCCCCCC` [Neopentyl glycol dipelargonate], for which the “Filters dispersion t24, 1%” value was “S/D”.
On the same count and under the same terms, the result for `CC(C)CCCCCCOC(=O)CCCCCC(C)C` [Isononyl Isononanoate, reference compound] reads “S”; that for `CCCCCCCCC(=O)OCC(COC(=O)CCCCCCCC)(COC(=O)CCCCCCCC)COC(=O)CCCCCCCC` [Pentaerythritol tetrapelargonate], “D”.
As for `CCCCCCCCC(=O)OCC(COC(=O)CCCCCCCC)OC(=O)CCCCCCCC` [Glycerol tripelargonate], the “Filters dispersion t24, 1%” value is “D”.

Still in this data set, the particulars now being: 10% TiO2, 0 hours at 25° C.
`CCCCCCCCC(=O)OCC(C)(C)COC(=O)CCCCCCCC` [Neopentyl glycol dipelargonate]: the “Filters dispersion t0, 10%” value is listed as “D”.
On the same count and under the same terms, the result for `CC(C)CCCCCCOC(=O)CCCCCC(C)C` [Isononyl Isononanoate, reference compound] reads “D”; that for `CCCCCCCCC(=O)OCC(COC(=O)CCCCCCCC)(COC(=O)CCCCCCCC)COC(=O)CCCCCCCC` [Pentaerythritol tetrapelargonate], “D”; that for `CCCCCCCCC(=O)OCC(COC(=O)CCCCCCCC)OC(=O)CCCCCCCC` [Glycerol tripelargonate], “D”.

Still in this data set, the particulars now being: 10% TiO2, 24 hours at 25° C.
As to `CCCCCCCCC(=O)OCC(C)(C)COC(=O)CCCCCCCC` [Neopentyl glycol dipelargonate], the “Filters dispersion t24, 10%” value is “S/D”.
Take `CC(C)CCCCCCOC(=O)CCCCCC(C)C` [Isononyl Isononanoate, reference compound]: the “Filters dispersion t24, 10%” value is reported as “S”.
On to `CCCCCCCCC(=O)OCC(COC(=O)CCCCCCCC)(COC(=O)CCCCCCCC)COC(=O)CCCCCCCC` [Pentaerythritol tetrapelargonate], for which the “Filters dispersion t24, 10%” value was “D”.
Regarding `CCCCCCCCC(=O)OCC(COC(=O)CCCCCCCC)OC(=O)CCCCCCCC` [Glycerol tripelargonate], the “Filters dispersion t24, 10%” value is reported as “S/D”.

The data set is the same for the next values; noted with them: in words.
`CCCCCCCCC(=O)OCC(COC(=O)CCCCCCCC)(COC(=O)CCCCCCCC)COC(=O)CCCCCCCC` [Pentaerythritol tetrapelargonate]: the “dispersion of Titania compared with reference solvents” value is given as “even better”.
The same measure, in the same setting: for `CCCCCCCCC(=O)OCC(COC(=O)CCCCCCCC)OC(=O)CCCCCCCC` [Glycerol tripelargonate] the value was “even better”.
